From PubChem BioAssay (NCI)
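A five-concentration, 48-hour dose response in 96-well plates underlies each endpoint, interpolated linearly between surrounding concentrations. TGI marks complete inhibition of growth.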

Legend:
Assay in all cases: NCI tumour cell line growth inhibition, 48 h
[1] = test system: 786-0 renal
[2] = test system: A498 renal
[3] = test system: A549 NSCLC
[4] = test system: ACHN renal
[5] = test system: CAKI-1 renal
[6] = test system: CCRF-CEM leukemia
[7] = test system: COLO 205 colon
[8] = test system: DLD-1 colon
[9] = test system: DMS 114 small cell lung
[10] = test system: DMS 273 small cell lung
[11] = test system: EKVX NSCLC
[12] = test system: HCC-2998 colon
[13] = test system: HCT-116 colon
[14] = test system: HCT-15 colon
[15] = test system: HL-60(TB) leukemia
[16] = test system: HOP-18 NSCLC
[17] = test system: HOP-62 NSCLC
[18] = test system: HOP-92 NSCLC
[19] = test system: HT29 colon
[20] = test system: IGROV1 ovarian
[21] = test system: K-562 leukemia
[22] = test system: KM12 colon
[23] = test system: KM20L2 colon
[24] = test system: LOX IMVI melanoma
[25] = test system: LXFL 529 NSCLC
[26] = test system: M14 melanoma
[27] = test system: M19-MEL melanoma
[28] = test system: MALME-3M melanoma
[29] = test system: MCF7 breast
[30] = test system: MOLT-4 leukemia
[31] = test system: NCI-H226 lung
[32] = test system: NCI-H23 lung
[33] = test system: NCI-H460 lung
[34] = test system: NCI-H522 lung
[35] = test system: NCI/ADR-RES ovarian
[36] = test system: OVCAR-3 ovarian
[37] = test system: OVCAR-4 ovarian
[38] = test system: OVCAR-5 ovarian
[39] = test system: OVCAR-8 ovarian
[40] = test system: RPMI-8226 leukemia
[41] = test system: RXF 393 renal
[42] = test system: RXF-631 renal
[43] = test system: SF-268 CNS
[44] = test system: SF-295 CNS
[45] = test system: SF-539 CNS
[46] = test system: SK-MEL-2 melanoma
[47] = test system: SK-MEL-28 melanoma
[48] = test system: SK-MEL-5 melanoma
[49] = test system: SK-OV-3 ovarian
[50] = test system: SN12C renal
[51] = test system: SN12K1 renal
[52] = test system: SNB-19 CNS
[53] = test system: SNB-75 CNS
[54] = test system: SNB-78 CNS
[55] = test system: SW-620 colon
[56] = test system: TK-10 renal
[57] = test system: U251 CNS
[58] = test system: UACC-257 melanoma
[59] = test system: UACC-62 melanoma
[60] = test system: UO-31 renal
[61] = test system: XF 498 CNS
[62] = test system: P388 leukemia
[63] = test system: P388/ADR leukemia

`CN(C)CC1CC/C(=C\c2ccc(Cl)cc2)C1=O` (stereo unspecified) showed a TGI [1] of 6.79 µM, a TGI [2] of 24 µM and a TGI [3] of 42.1 µM. For the same compound, the TGI [4] was 25.7 µM, the TGI [5] was 12.9 µM and the TGI [6] was 2.89 µM. The TGI [7] was 12 µM, the TGI [8] was 12.5 µM and the TGI [9] was 20.7 µM. The TGI [10] was 12.9 µM, the TGI [11] was 30.1 µM and the TGI [12] was 18.8 µM. For the same compound, the TGI [13] was 9.41 µM, the TGI [14] was 9.75 µM and the TGI [15] was 2.88 µM. The TGI [16] was 34 µM, the TGI [17] was 41.5 µM and the TGI [18] was 22.5 µM. For the same compound, the TGI [19] was 23.7 µM, the TGI [20] was 31.1 µM and the TGI [21] was 4.46 µM. It also gave a TGI [22] of 13.7 µM, a TGI [23] of 29.7 µM and a TGI [24] of 6.87 µM. The TGI [25] was 4.13 µM, the TGI [26] was 22.5 µM and the TGI [27] was 10.7 µM. For the same compound, the TGI [28] was 15 µM, the TGI [29] was 7.47 µM and the TGI [30] was 2.75 µM. For the same compound, the TGI [31] was 35.8 µM, the TGI [32] was 21.8 µM and the TGI [33] was 41.6 µM. It also gave a TGI [34] of 6.94 µM, a TGI [35] of 16.1 µM and a TGI [36] of 18.7 µM. It also gave a TGI [37] of 29.1 µM, a TGI [38] of 34.3 µM and a TGI [39] of 12.8 µM. It also gave a TGI [40] of 2.41 µM, a TGI [41] of 8.66 µM and a TGI [42] of 38.1 µM. For the same compound, the TGI [43] was 19.9 µM, the TGI [44] was 35.5 µM and the TGI [45] was 27.3 µM. It also gave a TGI [46] of 26.6 µM, a TGI [47] of 10.4 µM and a TGI [48] of 24.2 µM. For the same compound, the TGI [49] was 24.5 µM, the TGI [50] was 20.5 µM and the TGI [51] was 5.15 µM. For the same compound, the TGI [52] was 30.1 µM, the TGI [53] was 28.7 µM and the TGI [54] was 40.4 µM. For the same compound, the TGI [55] was 7.44 µM, the TGI [56] was 21.7 µM and the TGI [57] was 14 µM. For the same compound, the TGI [58] was 21.3 µM, the TGI [59] was 21.7 µM and the TGI [60] was 30.5 µM. It also gave a TGI [61] of 19.8 µM.

`O=C(NC(Cc1ccc(I)cc1)C(=O)O)c1cccc(Br)c1` (stereo unspecified) was tested, and the TGI [2] was greater than 100 µM, the TGI [3] was greater than 100 µM and the TGI [5] was greater than 100 µM. The TGI [6] was greater than 100 µM, the TGI [7] was greater than 100 µM and the TGI [8] was greater than 100 µM. The TGI [9] was greater than 100 µM, the TGI [10] was greater than 100 µM and the TGI [11] was greater than 100 µM. For the same compound, the TGI [12] was greater than 93.1 µM, the TGI [13] was greater than 100 µM and the TGI [14] was greater than 100 µM. It also gave a TGI [15] greater than 100 µM, a TGI [16] greater than 100 µM and a TGI [17] greater than 100 µM. It also gave a TGI [18] greater than 100 µM, a TGI [19] greater than 100 µM and a TGI [20] greater than 100 µM. It also gave a TGI [21] greater than 100 µM, a TGI [22] greater than 100 µM and a TGI [23] greater than 100 µM. For the same compound, the TGI [24] was greater than 100 µM, the TGI [27] was greater than 100 µM and the TGI [28] was greater than 100 µM. For the same compound, the TGI [29] was greater than 100 µM, the TGI [30] was greater than 100 µM and the TGI [31] was greater than 100 µM. For the same compound, the TGI [32] was greater than 100 µM, the TGI [33] was greater than 100 µM and the TGI [34] was greater than 100 µM. The TGI [35] was greater than 100 µM, the TGI [36] was greater than 100 µM and the TGI [37] was greater than 100 µM. The TGI [38] was greater than 100 µM, the TGI [39] was greater than 100 µM and the TGI [62] was greater than 100 µM. It also gave a TGI [63] greater than 100 µM, a TGI [40] greater than 100 µM and a TGI [43] greater than 100 µM. It also gave a TGI [44] greater than 100 µM, a TGI [45] greater than 100 µM and a TGI [46] greater than 100 µM. The TGI [47] was greater than 100 µM, the TGI [48] was greater than 100 µM and the TGI [49] was greater than 100 µM. It also gave a TGI [50] greater than 100 µM, a TGI [51] greater than 100 µM and a TGI [52] greater than 100 µM. The TGI [53] was greater than 100 µM, the TGI [54] was greater than 100 µM and the TGI [55] was greater than 100 µM. The TGI [57] was greater than 100 µM, the TGI [58] was greater than 100 µM and the TGI [59] was greater than 100 µM. The TGI [60] was greater than 100 µM.
